Ten compounds from US20260265271A1, “Cereblon Ligands and Uses Thereof” (REGENTS OF THE UNIVERSITY OF MICHIGAN, priority 2022, published 2026) can be followed below.

Where a name gives a salt, the structure may show the parent alone. Read-outs that look alike come from different tables or passages of the source.

Test [1] addresses wild-type human CRBN protein (Homo sapiens, UniProt Q96SW2). Briefly: biochemical.
Method: The binding to cereblon (CRBN) was determined using the Cereblon Binding Kit (Cisbio, #64BDCRBNPEG) following the manufacturer's instruction. Briefly, serially diluted compounds were incubated with GST-tagged wild-type human CRBN protein, XL665-labelled Thalidomide and Europium Cryptate labelled GST antibody at room temperature for about 3 hours.
The target of test [2] is T1, IKZF2 (Homo sapiens, UniProt Q96SW2+Q9UKS7).
T1 construct: host or cells: Jurkat-IKZF2-HiBiT
Briefly: IKZF2 HiBiT degradation assay (Jurkat-IKZF2-HiBiT). It counts as cell-based. Conditions: for DC50: read-out: IKZF2 degradation DC50; for Dmax: read-out: IKZF2 degradation Dmax (%). On the procedure:
Degradation of IKZF2 protein was determined by IKZF2 HiBiT assay using the Jurkat-IKZF2-HiBiT (Promega) cell line. […] Compounds were serially diluted in culture medium, and 20 μl of the diluted compounds were added to the appropriate wells of the plate. After the addition of compounds, the cells were incubated at 37° C. in an atmosphere of 5% CO2 for 24 hours. At the end of treatment, 40 ul of Nano-Glo HiBiT Lytic Detection Reagent (Promega) was added to each well, and then the plates were incubated at room temperature for 10-20 minutes. The luminescent signal was measured using a CALRIOstar plate reader (BMG Labtech). The readings were normalized to the DMSO-treated cells and the IC50 was calculated by nonlinear regression (four parameters sigmoid fitted with variable slope, least squares fit, and no constraint) analysis using the GraphPad Prism 8 software.

The mark [3] stands for this setting: Jurkat-IKZF2-HiBiT cells, 24 hours.

wild-type human CRBN protein, sequence (Q96SW2 whole entry): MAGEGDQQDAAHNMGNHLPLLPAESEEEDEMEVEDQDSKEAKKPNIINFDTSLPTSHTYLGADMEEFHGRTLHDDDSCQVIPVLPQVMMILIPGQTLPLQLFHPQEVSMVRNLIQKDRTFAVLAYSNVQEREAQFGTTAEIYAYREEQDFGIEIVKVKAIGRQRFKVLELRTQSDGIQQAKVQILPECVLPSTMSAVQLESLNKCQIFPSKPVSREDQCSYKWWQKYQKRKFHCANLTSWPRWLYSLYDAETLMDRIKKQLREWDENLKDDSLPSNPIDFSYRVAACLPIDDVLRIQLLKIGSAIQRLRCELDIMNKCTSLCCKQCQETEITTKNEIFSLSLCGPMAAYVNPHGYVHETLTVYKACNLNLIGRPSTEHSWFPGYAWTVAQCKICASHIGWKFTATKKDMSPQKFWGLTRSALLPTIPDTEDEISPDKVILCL
T1 sequence (Q9UKS7 whole entry): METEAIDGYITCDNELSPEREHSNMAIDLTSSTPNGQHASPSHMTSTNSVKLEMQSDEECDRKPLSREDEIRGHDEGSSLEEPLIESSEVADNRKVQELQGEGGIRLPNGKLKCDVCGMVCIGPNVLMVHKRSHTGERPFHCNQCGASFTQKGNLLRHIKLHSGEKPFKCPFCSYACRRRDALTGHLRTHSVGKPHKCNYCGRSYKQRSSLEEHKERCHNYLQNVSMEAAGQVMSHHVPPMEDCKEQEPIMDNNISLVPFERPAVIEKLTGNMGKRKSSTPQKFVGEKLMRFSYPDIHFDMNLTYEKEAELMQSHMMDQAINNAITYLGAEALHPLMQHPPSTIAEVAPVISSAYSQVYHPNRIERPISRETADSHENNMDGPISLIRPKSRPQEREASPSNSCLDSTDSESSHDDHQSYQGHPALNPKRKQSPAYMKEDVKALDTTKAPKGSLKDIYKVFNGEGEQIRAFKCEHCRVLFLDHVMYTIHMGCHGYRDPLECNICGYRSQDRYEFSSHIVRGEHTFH
T1 sequence (Q96SW2 whole entry): as the sequence (Q96SW2 whole entry) above
T1 sequence (Q16531 2-1140 partner limits assumed): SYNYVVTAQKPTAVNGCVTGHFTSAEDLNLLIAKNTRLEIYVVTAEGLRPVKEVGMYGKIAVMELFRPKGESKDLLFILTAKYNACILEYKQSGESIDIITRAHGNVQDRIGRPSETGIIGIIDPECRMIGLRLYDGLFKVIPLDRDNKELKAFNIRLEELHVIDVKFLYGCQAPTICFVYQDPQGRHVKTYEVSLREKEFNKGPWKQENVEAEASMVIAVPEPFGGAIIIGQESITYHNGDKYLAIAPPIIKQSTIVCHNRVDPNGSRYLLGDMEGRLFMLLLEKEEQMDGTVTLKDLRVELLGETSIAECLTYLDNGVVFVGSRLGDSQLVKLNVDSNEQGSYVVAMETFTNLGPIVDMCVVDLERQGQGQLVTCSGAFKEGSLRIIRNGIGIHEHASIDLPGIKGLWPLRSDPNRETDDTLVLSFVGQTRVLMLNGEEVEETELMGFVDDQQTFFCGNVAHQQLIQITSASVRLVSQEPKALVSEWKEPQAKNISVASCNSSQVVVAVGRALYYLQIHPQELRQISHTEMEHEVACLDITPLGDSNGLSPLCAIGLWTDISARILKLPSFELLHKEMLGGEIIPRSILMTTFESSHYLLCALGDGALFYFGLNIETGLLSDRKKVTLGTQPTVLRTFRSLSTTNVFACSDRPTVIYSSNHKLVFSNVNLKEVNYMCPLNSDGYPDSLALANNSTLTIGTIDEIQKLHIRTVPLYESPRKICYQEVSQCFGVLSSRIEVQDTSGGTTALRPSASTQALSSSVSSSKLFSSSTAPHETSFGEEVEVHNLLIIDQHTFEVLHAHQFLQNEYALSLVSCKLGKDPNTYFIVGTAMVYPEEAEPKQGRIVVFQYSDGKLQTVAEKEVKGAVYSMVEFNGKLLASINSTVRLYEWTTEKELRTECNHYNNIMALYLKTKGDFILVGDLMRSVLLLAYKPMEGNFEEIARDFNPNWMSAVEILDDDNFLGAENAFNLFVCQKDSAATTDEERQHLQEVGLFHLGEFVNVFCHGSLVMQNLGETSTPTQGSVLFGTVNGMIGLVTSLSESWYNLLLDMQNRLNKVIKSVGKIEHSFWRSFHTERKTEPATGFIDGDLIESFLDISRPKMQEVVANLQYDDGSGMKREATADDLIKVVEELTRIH

In test [1], `O=C1CCC(N2Cc3c(ccc4c3N3CCNC[C@H]3CO4)C2=O)C(=O)N1` (stereo in doubt) [Compound B16, (R)-3-((S)-3-oxo-1,3,7,7a,8,9,10,11-octahydro-2H-pyrazino[1′,2′:4,5][1,4]oxazino[3,2-e]isoindol-2-yl)piperidine-2,6-dione] came in with a concentration for half-maximal inhibition (IC50) of 1.4 µM.

As to `O=C1CCC(N2Cc3cc4c(cc3C2=O)OC[C@@H]2CNCCN42)C(=O)N1` (stereo partly drawn) [Compound B1, 3-((S)-8-oxo-1,2,3,4,4a,5,8,10-octahydro-9H-pyrazino[1′,2′:4,5][1,4]oxazino[2,3-f]isoindol-9-yl)piperidine-2,6-dione hydrochloride salt], in test [1], the half-maximal inhibitory concentration (IC50) was determined as 2.1 µM.

`O=C1CC[C@@H](N2Cc3cc4c(cc3C2=O)OC[C@@H]2CNCCN42)C(=O)N1` [Compound B2, (R)-3-((S)-8-oxo-1,2,3,4,4a,5,8,10-octahydro-9H-pyrazino[1′,2′:4,5][1,4]oxazino[2,3-f]isoindol-9-yl)piperidine-2,6-dione]: the half-maximal inhibitory concentration (IC50) in test [1] was determined as 5.2 µM.

Regarding `CC(C)(C)OC(=O)N1CCN2c3cc4c(cc3OC[C@@H]2C1)C(=O)N([C@H]1CCC(=O)NC1=O)C4` [Compound B3, (S)-tert-butyl (4aS)-9-(2,6-dioxopiperidin-3-yl)-8-oxo-1,2,4a,5,9,10-hexahydro-8H-pyrazino[1′,2′:4,5][1,4]oxazino[2,3-f]isoindole-3(4H)-carboxylate], the IC50 in test [1] was determined as 1.7 µM.

For `CC1(C)CCC(CN2CCN3c4cc5c(cc4OC[C@@H]3C2)C(=O)N([C@H]2CCC(=O)NC2=O)C5)CC1` [Compound C34, (S)-3-((S)-3-((4,4-dimethylcyclohexyl)methyl)-8-oxo-1,2,3,4,4a,5,8,10-octahydro-9H-pyrazino[1′,2′:4,5][1,4]oxazino[2,3-f]isoindol-9-yl)piperidine-2,6-dione], the half-maximal degradation concentration (DC50) in test [2] (setting [3]) is 0.414 µM. The greatest degradation seen (Dmax) in test [2] is 68%.

Consider `O=C1CC[C@H](N2Cc3cc4c(cc3C2=O)OC[C@@H]2CN(CC3CCC5(CC3)COC5)CCN42)C(=O)N1` [Compound C35, (S)-3-((S)-3-((2-oxaspiro[3.5]nonan-7-yl)methyl)-8-oxo-1,2,3,4,4a,5,8,10-octahydro-9H-pyrazino[1′,2′:4,5][1,4]oxazino[2,3-f]isoindol-9-yl)piperidine-2,6-dione], for which, in test [2] (setting [3]), the DC50 is 0.933 µM. The maximal degradation (Dmax) in test [2] came to 66%.

As for `O=C1CC[C@H](N2Cc3cc4c(cc3C2=O)OC[C@@H]2CN(CC3CC5CCC3C5)CCN42)C(=O)N1` (stereo partly drawn) [Compound C36, (3S)-3-((4aS)-3-(bicyclo[2.2.1]heptan-2-ylmethyl)-8-oxo-1,2,3,4,4a,5,8,10-octahydro-9H-pyrazino[1′,2′:4,5][1,4]oxazino[2,3-f]isoindol-9-yl)piperidine-2,6-dione], the DC50 in test [2] (setting [3]) amounted to 0.376 µM. Moreover, the greatest degradation seen (Dmax) in test [2] stood at 68%.

As to `O=C1CC[C@H](N2Cc3cc4c(cc3C2=O)OC[C@@H]2CN(CC3CC5CCC3CC5)CCN42)C(=O)N1` (stereo partly drawn) [Compound C37, (3S)-3-((4aS)-3-(bicyclo[2.2.2]octan-2-ylmethyl)-8-oxo-1,2,3,4,4a,5,8,10-octahydro-9H-pyrazino[1′,2′:4,5][1,4]oxazino[2,3-f]isoindol-9-yl)piperidine-2,6-dione], in test [2] (setting [3]), the 50% degradation concentration (DC50) amounted to 0.318 µM. Besides, in test [2], the Dmax was determined as 69%.

As to `CC(C)(C)OC(=O)N1CCC2(CCC(CN3CCN4c5cc6c(cc5OC[C@@H]4C3)C(=O)N([C@H]3CCC(=O)NC3=O)C6)CC2)CC1` [Compound C38, tert-butyl 9-(((S)-9-((S)-2,6-dioxopiperidin-3-yl)-8-oxo-1,2,4a,5,9,10-hexahydro-8H-pyrazino[1′,2′:4,5][1,4]oxazino[2,3-f]isoindol-3(4H)-yl)methyl)-3-azaspiro[5.5]undecane-3-carboxylate], the DC50 in test [2] (setting [3]) is 0.424 µM. The greatest degradation seen (Dmax) in test [2] worked out at 57%.

In the case of `O=C1CCC(N2Cc3cc(C4CCN(Cc5ccccc5)CC4)ccc3C2=O)C(=O)N1` (stereo not shown) [DKY709], in test [2] (setting [3]), the maximal degradation (Dmax) is 67% and the DC50 was 0.062 µM.
